Assay: Comment Code material properties: vapor pressure, ClogP, probability of ingredient color instability, odor detection threshold, melamine formaldehyde PMC headspace response ratio and leakage, liquid dish neat product liquid-air partition coefficient
Format: physicochemical
[1] = cell strings several class symbols together, each letter is one property class of L1
[2] = Table 1 materials, each letter of the code is one property class (vapor pressure, ClogP, color instability, odor detection threshold, PMC headspace ratio, PMC leakage, liquid dish liquid-air partition coefficient)
[3] = letter codes A-L: vapor pressure, ClogP, probability of ingredient color instability, odor detection threshold, PMC headspace response ratio, PMC leakage, liquid dish liquid-air partition coefficient, Table 1 materials with at least one MORV from 1 to 5

| SMILES | Comment Code [1] | Comment Code [2] | Comment Code [3] |
| --- | --- | --- | --- |
| CC(C)CC=C(C=O)C(C)C [Material 847] | ADFGIJKL |  |  |
| CC(C)=CCCC(C)CCCC(C)C=O (stereo not shown) [Material 757] |  | BDFHJK |  |
| C/C=C(\C)C(=O)OCC/C=C\CC [Material 536] | BDEFHJK |  |  |
| C=CC(C)(CCC=C(C)C)OC=O (stereo not shown) [Material 150] | ACFHJK |  |  |
| CCCCCOC(=O)C=Cc1ccccc1 [Material 671] |  | DEFHJK |  |
| CC(C)C12CCC(C)(CC1)O2 [Material 875] | ADGIJKL |  |  |
| CCC(C)(O)CCc1ccccc1 (stereo not shown) [Material 731] |  | CEFHJK |  |
| C=C(C)C1CC=C(C)CC1 (stereo not shown) [Material 702] |  | ADEFGIJKL |  |
| CC(C)=C1CCC(C)C2=C(C1)C(C)CC2 (stereo not shown) [Material 626] |  | DEFHJKL |  |
| Cc1ccc2ncccc2c1 [Material 777] | BCEFHIKL |  |  |
| C[C@@H]1CC[C@H]2C(C)(C)[C@H]3C[C@@]12CC1OC(C)(C)OC13C (stereo partly shown) [Material 674] | DEFHJK | DEFHJK |  |
| O=C(OCCc1ccccc1)c1ccccc1 [Material 967] |  | DHJ |  |
| CC/C=C\CCOC(=O)CCC [Material 540] | ADEFHJKL |  |  |
| CCCCCCC/C=C/C=O [Material 1067] |  | ADHKL |  |
| CC(C=O)=CCC1C(C)=CCCC1(C)C (stereo not shown) [Material 1116] |  |  | BDFHJK |
| CC1=CC2C(CC1)C(C)=CCC2C(C)C (stereo not shown) [Material 725] |  | DEFHJKL |  |
| COc1ccc(COC=O)cc1 [Material 665] | BCEFGK |  |  |
| O=C(Cc1ccccc1)OCCc1ccccc1 [Material 959] |  | DHJ |  |
| C=C(C)C1CCC(C)C(=O)C1 (stereo not shown) [Material 443] | ACGIJKL |  |  |
| CCCCCCOC(=O)c1ccco1 [Material 275] | DEFHJK |  |  |
| CCCC(=O)OCCc1ccccc1 [Material 831] |  | DEFHJK |  |
| C=C(C)C1CCC(C)(OC(C)=O)CC1 (stereo not shown) [Material 611] |  | BDHJK |  |
| Cc1ncsc1CCO [Material 1042] |  | CGIKL |  |
| CC1=CC2C(C(C)C)CCC(C)(O)C2CC1 (stereo not shown) [Material 1046] |  | DEFHJK |  |

| SMILES | Comment Code [1] | Comment Code [2] | Comment Code [3] |
| --- | --- | --- | --- |
| CCC(=O)OCC(=O)OC(C)C1CCCC(C)(C)C1 (stereo not shown) [Material 1009] |  | DFHJ |  |
| O=C(/C=C/c1ccccc1)OCc1ccccc1 [Material 650] |  | DHJ |  |
| CC(C)C(=O)OCCc1ccccc1 [Material 958] | DHJK |  |  |
| COc1ccc(COC(C)=O)cc1 [Material 664] | BCEFGK |  |  |
| N#CC=Cc1ccccc1 [Material 549] | ACEFGIK |  |  |
| C=CCCC(=O)c1ccccc1 [Material 792] |  | BCEFHIK |  |
| CC(=O)c1cc(C(C)(C)C)cc2c1CCC2(C)C [Material 563] |  | DEFHJK |  |
| C=CC(=C)CCC=C(C)CCC=C(C)C [Material 628] |  | DEFHJK |  |
| CC1CCCCCCCCCCCCC(=O)C1 (stereo not shown) [Material 206] | DEFGJK |  |  |
| CC(C)=CCC/C(C)=C/COC=O [Material 306] | BCEFHJK |  |  |
| CCC(=O)OC(C)(C)C1CC=C(C)CC1 (stereo not shown) [Material 686] |  | BDEFHJK |  |
| CC(C)Cc1ccc2ccccc2n1 [Material 849] |  | CEFHJK |  |
| CC/C=C\C/C=C/CCO [Material 1072] |  | ACEFHK |  |
| C=C[C@@](C)(O)CCC=C(C)C [Material 1017] | BCEFGIJK |  |  |
| C=C1CCC23CC1C(C)(C)C2CCC3C (stereo not shown) [Material 632] | BDEFGJKL | BDEFGJKL |  |
| CC(=O)OCCc1ccccc1 [Material 832] | BCEFHK |  |  |
| OCc1ccccc1 [Material 652] | ACEFGIKL |  |  |
| C=C(C)CCC[C@H](C)CCO [Material 1004] | BCHIJKL |  |  |
| CCC(C)C(=O)OC (stereo not shown) [Material 904] | ACEFGIKL |  |  |
| CC1=CC2C(CC1)C(C)=CCC2C(C)C (stereo not shown) [Material 717] |  | DEFHJKL |  |
| CC1=C2C(CC1)C(C)CCC1C2C1(C)C (stereo not shown) [Material 708] | BDEFHJKL | BDEFHJKL |  |
| CC1=CCCC2(C)CCC(C(C)(C)O)CC12 (stereo not shown) [Material 775] |  | DEFHJK |  |
| CC1C2CC(CC2C2CCC(O)CC2)C1(C)C (stereo not shown) [Material 230] | DEFHJK |  |  |

The next lines start with the values.

| Comment Code [1] | Comment Code [2] | Comment Code [3] | SMILES |
| --- | --- | --- | --- |
| DEFHJK |  |  | CCCC(=O)OC1CC2CC1C1CC=CC21 (stereo not shown) [Material 484] |
| BDEFHJK | BDEFHJK |  | CC1C(=O)CC2(C)CCCC(C)(C)C23CC13 (stereo not shown) [Material 804] |
|  | DFHJK |  | CC(C)=CCCC(C)(O)C1CC=C(C)CC1 (stereo not shown) [Material 718] |
| DEFHJK | DEFHJK |  | CC/C(=C/CC1CC=C(C)C1(C)C)CO (stereo not shown) [Material 1024] |
| ADEFGIJKL |  |  | CC1CCC2CC1C2(C)C (stereo not shown) [Material 525] |
| BDEFHJK | BDEFHJK |  | CC1CCC2C(C)(C)C3CC12CCC3(C)OC=O (stereo not shown) [Material 566] |
| BDEFHJKL |  |  | CC(=O)OCCC1CCCCC1 [Material 481] |
|  | DHJ |  | CC(C)CCc1ccc2c(c1)OCC(=O)CO2 [Material 658] |
| BDEFHJK | BDEFHJK |  | CC1=CCCC2(C)CCC3CC12OC3(C)C (stereo not shown) [Material 726] |
| ACHIJKL |  |  | Cc1csc(C(C)C)n1 [Material 848] |
| DEFHJK |  |  | CCCCCCCC(=O)OCCC(C)C [Material 237] |
| BDEFHJKL |  |  | CC(=O)OCCCCCCC(C)C [Material 204] |
| DFHJK |  |  | CC1=C2CC(C(C)(C)O)CCC2(C)CCC1 (stereo not shown) [Material 329] |
| ADEFGIJKL |  |  | CC(C)C12CCC(C)(O)C1C2 (stereo not shown) [Material 1019] |
|  |  | ACEFHJKL | COC1C=CC2C3CCC(C3)C12 (stereo not shown) [Material 1120] |
|  | BCGIJK |  | C=C(C)C1CCC(C)(O)CC1 (stereo not shown) [Material 612] |

| Comment Code [1] | Comment Code [2] | Comment Code [3] | SMILES |
| --- | --- | --- | --- |
| BCEFGIKL |  |  | CC(C)=CCCC(C)CC#N (stereo not shown) [Material 509] |
|  | DFHJK |  | CC(C)=CCCC1=CCC(C)(C=O)CC1 (stereo not shown) [Material 988] |
| CEFHJK |  |  | CCC(=O)N(CC)c1cccc(C)c1 [Material 755] |
| BDHIJK |  |  | CC=CC(=O)C1C(C)=CCCC1(C)C (stereo not shown) [Material 880] |
|  | DEFHJK |  | CC1CC=CCCCCCCCC(=O)OCC1 (stereo not shown) [Material 1099] |
|  |  | CGIK | COCc1ccc(O)c(OC)c1 [Material 1113] |
|  | BCEFGIJKL |  | CCC(C)(O)CCC=C(C)C (stereo not shown) [Material 877] |
|  | ACEFGIKL |  | CCCCCCCCO [Material 580] |
|  | BCGIJK |  | CC(C)C1=CCC(C)(O)CC1 (stereo not shown) [Material 982] |
| ADGIJKL |  |  | C=CC(C)=CCC1OC1(C)C (stereo not shown) [Material 73] |
| DEFHJK | DEFHJK |  | CC(C)(C)C(=O)OC1CC2CC1C1CC=CC21 (stereo not shown) [Material 978] |
| DEFHJK | DEFHJK |  | CC(=CCCC1(C)C2CC3C(C2)C31C)CO (stereo not shown) [Material 694] |
| DHJK |  |  | C/C=C(\C)C(=O)OCCc1ccccc1 [Material 960] |
| ACEFGIKL |  |  | CC(=O)C(C)O (stereo not shown) [Material 760] |
| ADEFHJKL |  |  | CC=CCOCC/C=C\CC [Material 19] |
| CEFGJK |  |  | CC(=O)OC1CC2CC1C1CC=CC21 (stereo not shown) [Material 281] |
